Results taken from the supplement of paper PMC10981050.

Columns and labels:
Test in all cases: cell viability relative to vehicle control; higher = less cytotoxic
Conditions in all cases: SRSF2 genotype: SRSF2 WT
MARIMO = tested on: MARIMO
Protocol: (§1)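 Isogenic SRSF2 WT and CRISPR SRSF2 P95 mutant clones of MOLM14, OCI-AML2 and MARIMO were exposed to ROCK inhibitors at 7 doses (0.037 to 29.9 µM) for 48 h. Viability was read by CellTiter-Glo luminescence and normalised to the vehicle control on each plate (%).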

MOLM14 = tested on: MOLM14
Protocol: as §1

OCI-AML2 = tested on: OCI-AML2
Protocol: as §1

O=C(NCc1cccc(O)c1)Nc1nc(-c2ccncc2)cs1 [RKI-1447]
cell viability [%]
Conditions	0.037 µM	0.129 µM	0.369 µM	0.997 µM	3.49 µM	9.97 µM	29.9 µM
MARIMO	102	101	101	98.4	94.49	75.9	20.3
MOLM14	97	80.3	70.7	66.31	60.68	33	1.24
OCI-AML2	98.1	73.5	44.7	34.5	27.9	22.8	4.32
